Data taken from patent US20250382273A1 (INSTITUT NATIONAL DE LA SANTE ET DE LA RECHERCHE MEDICALE, priority 2022, published 2025).
Where two headings read alike, the source gives them in different places.

Tests used:
[1] = test system: M. tuberculosis H37Rv_gfp; assay type: cell-based, Mycobacterium tuberculosis
[2] = test system: M. tuberculosis H37Rv_gfp; assay type: cell-based, Mycobacterium tuberculosis; details: in combination with delamanid 4 ng·mL−1, 5 days at 37° C.
[3] = in combination with pretomanid 20 ng·mL−1, 5 days at 37° C., […], read-out: EC50 H37Rv_gfp

Row | Compound | EC50 [1, 3] | EC50 [2] | EC50 ([1]; in combination with pretomanid, unit inferred, read-out: average EC50 H37Rv_gfp)
1 | Cc1ccc2nc(NC(=O)[C@@H]3C4C=CC(C4)[C@@H]3C(=O)O)sc2c1 (mixture of isomers) [Example 1, 3-[(6-methyl-1,3-benzothiazol-2-yl)carbamoyl]bicyclo[2.2.1]hept-5-ene-2-carboxylic acid] | 1000 to 5000 nM | 310 nM | –
2 | O=C(Nc1nc2ccc(Oc3cc(C(F)(F)F)ccn3)cc2s1)[C@@H]1C2C=CC(C2)[C@@H]1C(=O)O (some centres unmarked) [Example 27, 3-[[6-[[4-(trifluoromethyl)-2-pyridyl]oxy]-1,3-benzothiazol-2-yl]carbamoyl]bicyclo[2.2.1]hept-5-ene-2-carboxylic acid] | < 1000 nM | 150 nM | 110 nM
3 | O=C(Nc1nc2ccc(Oc3ccccc3)cc2s1)[C@@H]1C2C=CC(C2)[C@@H]1C(=O)O (stereo partly drawn) [Example 18, [2-hydroxy-1,1-bis(hydroxymethyl)ethyl]ammonium: (1R,2S,3R,4S)-3-[(6-phenoxy-1,3-benzothiazol-2-yl)carbamoyl]bicyclo[2.2.1]hept-5-ene-2-carboxylate] | < 1000 nM | 160 nM | –
4 | Cc1ccc2nc(N3C(=O)[C@@H]4[C@H](C3=O)[C@@H]3C=C[C@H]4C3)sc2c1 [Example 2, (1R,2S,6R,7S)-4-(6-methyl-1,3-benzothiazol-2-yl)-4-azatricyclo[5.2.1.02,6]dec-8-ene-3,5-dione] | < 1000 nM | 420 nM | –
5 | O=C(Nc1nc2ccc(OC(F)(F)F)cc2s1)[C@@H]1C2C=CC(C2)[C@@H]1C(=O)O (some centres unmarked) [Example 44, 3-[[6-(trifluoromethoxy)-1,3-benzothiazol-2-yl]carbamoyl]bicyclo[2.2.1]hept-5-ene-2-carboxylic acid] | < 1000 nM | – | –
6 | O=C(Nc1nc2ccc(-c3ccccc3)cc2s1)[C@@H]1C2C=CC(C2)[C@@H]1C(=O)O (some centres unmarked) [Example 51] | < 1000 nM | – | –
7 | O=C(Nc1nc2ccc(-c3ccc(Cl)cc3)cc2s1)[C@@H]1C2C=CC(C2)[C@@H]1C(=O)O (some centres unmarked) [Example 55, 3-[[6-(4-chlorophenyl)-1,3-benzothiazol-2-yl]carbamoyl]bicyclo[2.2.1]hept-5-ene-2-carboxylic acid] | < 1000 nM | – | –
8 | C#Cc1ccc2nc(N3C(=O)[C@@H]4[C@H](C3=O)[C@@H]3C=C[C@H]4C3)sc2c1 [Example 72, (1R,2S,6R,7S)-4-(6-ethynyl-1,3-benzothiazol-2-yl)-4-azatricyclo[5.2.1.02,6]dec-8-ene-3,5-dione] | 1000 to 5000 nM | – | –
9 | O=C(Nc1nc2ccc(-c3ccc(Cl)c(Cl)c3)cc2s1)[C@@H]1C2C=CC(C2)[C@@H]1C(=O)O (some centres unmarked) [Example 56, 3-[[6-(3,4-dichlorophenyl)-1,3-benzothiazol-2-yl]carbamoyl]bicycle [2.2.1]hept-5-ene-2-carboxylic acid] | < 1000 nM | – | –
10 | O=C(Nc1nc2ccc(Oc3ccc(C(F)(F)F)cn3)cc2s1)[C@@H]1C2C=CC(C2)[C@@H]1C(=O)O (some centres unmarked) [Example 35, 3-[[6-[[5-(trifluoromethyl)-2-pyridyl]oxy]-1,3-benzothiazol-2-yl]carbamoyl]bicyclo[2.2.1]hept-5-ene-2-carboxylic acid] | 1000 to 5000 nM | – | –
11 | O=C1[C@@H]2C3C=CC(C3)[C@@H]2C(=O)N1c1nc2ccc(Nc3ccnc(C(F)(F)F)c3)cc2s1 [Example 90, 4-[6-[[2-(trifluoromethyl)-4-pyridyl]amino]-1,3-benzothiazol-2-yl]-4-azatricyclo[5.2.1.02,6]dec-8-ene-3,5-dione] | < 1000 nM | – | –
12 | O=C1[C@@H]2C3C=CC(C3)[C@@H]2C(=O)N1c1nc2ccc(Nc3cccc(C(F)(F)F)n3)cc2s1 [Example 97, 4-[6-[[6-(trifluoromethyl)-2-pyridyl]amino]-1,3-benzothiazol-2-yl]-4-azatricyclo[5.2.1.02,6]dec-8-ene-3,5-dione] | < 1000 nM | – | –
